Test results as given in ChEMBL document CHEMBL6115002, “Discovery of novel sitolactone derivative leading to PANoptosis and differentiation of acute myeloid leukemia cells” (Eur J Med Chem, 2025).
Active and inactive are the calls of the source. The rule behind the calls is not given here.

What was measured:
Kasumi 1 [1] = experiment: Induction of apoptosis in human Kasumi 1 cells assessed as increase in caspase-3 level incubated for 72 hrs by Western blotting analysis; type: functional, cell-based; conditions: dose 0.625-5 µM
Calu-1 = experiment: Antiproliferative activity against human Calu-1 cells assessed as inhibition of cell proliferation incubated for 72 hrs by CCK-8 assay; type: functional, cell-based; conditions: Calu-1, 72 h
[2] = Induction of cell cycle arrest in mouse WEHI-3 cells assessed as increase in accumulation of cells at S phase at 0.25 uM incubated for 24 hrs by propidium iodide staining based flow cytometric analysis (reference value: 51.22%); type: functional
PANC-1 = experiment: Antiproliferative activity against human PANC-1 cells assessed as inhibition of cell proliferation incubated for 72 hrs by CCK-8 assay; type: functional, cell-based; conditions: PANC-1, 72 h
Kasumi 1 [3] = experiment: Induction of cell cycle arrest in human Kasumi 1 cells assessed as increase in accumulation of cells at G2 phase at 1 uM incubated for 24 hrs by propidium iodide staining based flow cytometric analysis (reference value: 9.82%); type: functional
WEHI-3 [4] = experiment: Induction of pyroptosis in mouse WEHI-3 cells assessed as increase in p-RIPK3 level at 0.625 to 5 uM incubated for 72 hrs by Western blotting analysis; type: functional, cell-based; conditions: dose 0.625-5 µM
[5] = Induction of cell cycle arrest in mouse WEHI-3 cells assessed as increase in accumulation of cells at G1 phase at 0.5 uM incubated for 24 hrs by propidium iodide staining based flow cytometric analysis (reference value: 46.93%); type: functional
Kasumi 1 [6] = experiment: Disruption of citrate metabolic pathway in human Kasumi 1 cells by KEGG enrichment analysis; type: functional, cell-based
Kasumi 1 [7] = experiment: Induction of cell cycle arrest in human Kasumi 1 cells assessed as increase in accumulation of cells at S phase at 0.25 uM incubated for 24 hrs by propidium iodide staining based flow cytometric analysis (reference value: 39.77%); type: functional
Kasumi 1 [8] = experiment: Disruption of pyruvate metabolic pathway in human Kasumi 1 cells by KEGG enrichment analysis; type: functional, cell-based
HCT-116 [9] = experiment: Inhibition of tumor sphere formation in human HCT-116 cells at 1.25 uM incubated for 24 hrs; type: functional, cell-based
WEHI-3 [10] = experiment: Induction of apoptosis in mouse WEHI-3 cells assessed as increase in cleaved PARP-1 level incubated for 72 hrs by Western blotting analysis; type: functional, cell-based; conditions: dose 0.625-5 µM
MV4-11 = experiment: Antiproliferative activity against human MV4-11 cells assessed as inhibition cell proliferation incubated for 72 hrs by MTT assay; type: functional, cell-based; conditions: MV4-11, 72 h
Kasumi 1 [11] = experiment: Induction of […] in human Kasumi 1 cells assessed as increase in p-MLKL level at 0.625 to 5 uM incubated for 72 hrs by Western blotting analysis; type: functional, cell-based; conditions: dose 0.625-5 µM
WEHI-3 [12] = experiment: PANoptosis in mouse WEHI-3 cells assessed as cell death at 1.2 uM incubated for 72 hrs by optical microscopic analysis; type: functional, cell-based
HCT-116 [13] = experiment: Antiproliferative activity against human HCT-116 cells assessed as inhibition of cell proliferation incubated for 72 hrs by CCK-8 assay; type: functional, cell-based; conditions: HCT-116, 72 h
Kasumi 1 [14] = experiment: Induction of […] in human Kasumi 1 cells assessed as increase in p-RIPK3 level at 0.625 to 5 uM incubated for 72 hrs by Western blotting analysis; type: functional, cell-based; conditions: dose 0.625-5 µM
[15] = Antiproliferative activity against human SKNO-1 cells assessed as inhibition of cell proliferation incubated for 72 hrs by CCK-8 assay; type: functional, cell-based; conditions: SKNO-1, 72 h
HCT-116 [16] = experiment: Anti-cancer activity against human HCT-116 cells assessed as reduction in number of spheroids incubated for 24 hrs; type: functional, cell-based
HCT-15 = experiment: Antiproliferative activity against human HCT-15 cells assessed as inhibition of cell proliferation incubated for 72 hrs by CCK-8 assay; type: functional, cell-based; conditions: HCT-15, 72 h
HL-60 = experiment: Antiproliferative activity against human HL-60 cells assessed as inhibition of cell proliferation incubated for 72 hrs by CCK-8 assay; type: functional, cell-based; conditions: HL-60, 72 h
WEHI-3 [17] = experiment: Induction of cell differentiation in mouse WEHI-3 cells assessed as increase in CD11B expression by Western blotting analysis; type: functional, cell-based; conditions: dose 0.125-1 µM
NCI-H23 = experiment: Antiproliferative activity against human NCI-H23 cells assessed as inhibition of cell proliferation incubated for 72 hrs by CCK-8 assay; type: functional, cell-based; conditions: NCI-H23, 72 h
Kasumi 1 [18] = experiment: Induction of cell differentiation in human Kasumi 1 cells assessed as lobulated nuclei at 1 uM incubated for 24 hrs by giemsa-Wrights staining based analysis; type: functional
Kasumi 1 [19] = experiment: Induction of cell cycle arrest in human Kasumi 1 cells assessed as increase in accumulation of cells at G2 phase at 0.5 uM incubated for 24 hrs by propidium iodide staining based flow cytometric analysis (reference value: 9.82%); type: functional
RKO = experiment: Antiproliferative activity against human RKO cells assessed as inhibition of cell proliferation incubated for 72 hrs by CCK-8 assay; type: functional, cell-based
[20] = Induction of cell cycle arrest in mouse WEHI-3 cells assessed as increase in accumulation of cells at G2 phase at 1 uM incubated for 24 hrs by propidium iodide staining based flow cytometric analysis (reference value: 1.85%); type: functional
MOLM-13 = experiment: Antiproliferative activity against human MOLM-13 cells assessed as inhibition of cell proliferation incubated for 72 hrs by CCK-8 assay; type: functional, cell-based; conditions: MOLM-13, 72 h
[21] = Antiproliferative activity against mouse WEHI-3 cells assessed as inhibition cell proliferation incubated for 72 hrs by MTT assay; type: functional, cell-based; conditions: WEHI-3, 72 h
Kasumi 1 [22] = experiment: PANoptosis in human Kasumi 1 cells assessed as cell death at 0.6 uM incubated for 72 hrs by optical microscopic analysis; type: functional, cell-based
HT-29 = experiment: Antiproliferative activity against human HT-29 cells assessed as inhibition of cell proliferation incubated for 72 hrs by CCK-8 assay; type: functional, cell-based; conditions: HT-29, 72 h
PC-3 = experiment: Antiproliferative activity against human PC-3 cells assessed as inhibition of cell proliferation incubated for 72 hrs by CCK-8 assay; type: functional, cell-based; conditions: PC-3, 72 h
Kasumi 1 [23] = experiment: Induction of cell cycle arrest in human Kasumi 1 cells assessed as increase in accumulation of cells at G2 phase at 0.25 uM incubated for 24 hrs by propidium iodide staining based flow cytometric analysis (reference value: 9.82%); type: functional
WEHI-3 [24] = experiment: Antitumor activity against mouse WEHI-3 cells implanted in Balb/c mouse assessed as reduction in leukocyte number at 100 to 200 mg/kg, po administered (4aR,6aS,7S,9aS,9bS)-2-(((S)-2-(hydroxymethyl)pyrrolidin-1-yl)methyl)-6a-methyl7 ((triisopropylsilyl)oxy)decahydrocyclopenta[f]chromen-3(2H)-one as prodrug once daily and measured after 15 days by H and E staining based analysis; type: functional, organism-based; conditions: dose 100-200 mg/kg, time 15.0 day
[25] = Induction of cell cycle arrest in mouse WEHI-3 cells assessed as increase in accumulation of cells at G2 phase at 0.25 uM incubated for 24 hrs by propidium iodide staining based flow cytometric analysis (reference value: 1.85%); type: functional
WEHI-3 [26] = experiment: Induction of pyroptosis in mouse WEHI-3 cells assessed as effect on cleaved N-GSDMB at 0.6 to 2.5 uM incubated for 24 hrs by Western blotting analysis; type: functional, cell-based; conditions: dose 0.6-2.5 µM
WEHI-3 [27] = experiment: Inhibition of colony formation in mouse WEHI-3 cells incubated for 15 days by crystal violet staining based analysis; type: functional, cell-based; conditions: dose 0.5-1 µM, time 15.0 day
Kasumi 1 [28] = experiment: Inhibition of colony formation in human Kasumi 1 cells incubated for 15 days by crystal violet staining based analysis; type: functional, cell-based; conditions: dose 0.5-1 µM, time 15.0 day

C=C1C[C@@H]2[C@@H](CC[C@]3(C)[C@@H](O[Si](C(C)C)(C(C)C)C(C)C)CC[C@@H]23)OC1=O
Activity (Kasumi 1 [1]): Dose-dependent-effect | IC50 (Calu-1): 3.6 µM | Activity [2]: 46.46% | IC50 (PANC-1): 1.31 µM | Activity (Kasumi 1 [3]): 18.95% | Activity (WEHI-3 [4]): Active | Activity [5]: 53.15% | Activity (Kasumi 1 [6]): Active | Activity (Kasumi 1 [7]): 36.36% | Activity (Kasumi 1 [8]): Active | inhibition (HCT-116 [9]): Active | Activity (WEHI-3 [10]): Dose-dependent-effect | IC50 (MV4-11): 1.75 µM | Activity (Kasumi 1 [11]): Active | Activity (WEHI-3 [12]): Active | IC50 (HCT-116 [13]): 1.93 µM | Activity (Kasumi 1 [14]): Active | IC50 [15]: 1.24 µM | Activity (HCT-116 [16]): Active | IC50 (HCT-15): 8.9 µM | IC50 (HL-60): 0.9 µM | Activity (WEHI-3 [17]): Dose-dependent-effect | IC50 (NCI-H23): 4 µM | Activity (Kasumi 1 [18]): Active | Activity (Kasumi 1 [19]): 14.84% | IC50 (RKO): 2.07 µM | Activity [20]: 3.39% | IC50 (MOLM-13): 1.53 µM | IC50 [21]: 0.42 µM | Activity (Kasumi 1 [22]): Active | IC50 (HT-29): 1.74 µM | IC50 (PC-3): 2.09 µM | Activity (Kasumi 1 [23]): 10.77% | Activity (WEHI-3 [24]): Active | Activity [25]: 1.76% | Activity (WEHI-3 [26]): Active | inhibition (WEHI-3 [27]): Dose-dependent-effect | inhibition (Kasumi 1 [28]): Dose-dependent-effect
